Experimental data: patent US9839639B2, “Neprilysin inhibitors” (THERAVANCE BIOPHARMA R&D IP, LLC, priority 2014, dated 2017)

Target: T1, human NEP (Homo sapiens, UniProt P08473)
T1 construct: purchased R&D Systems, Minneapolis, Minn; 1182-ZN
Assay: In vitro enzyme inhibition assay, inhibitor potency at human NEP
Format: biochemical
Conditions: recombinant human NEP, fluorogenic peptide substrate 10 μM, 37° C.; values given as ranges
Method: The inhibitory activities of compounds at human and rat neprilysin (EC 3.4.24.11; NEP) and human angiotensin converting enzyme (ACE) were determined using in vitro assays as described below.
Recombinant human NEP and recombinant human ACE were obtained commercially (R&D Systems, Minneapolis, Minn., catalog numbers 1182-ZN and 929-ZN, respectively). The fluorogenic peptide substrate Mca-D-Arg-Arg-Leu-Dap-(Dnp)-OH (Medeiros et al. (1997) Braz. J. Med. Biol. Res. 30:1157-62; Anaspec, San Jose, Calif.) and Abz-Phe-Arg-Lys(Dnp)-Pro-OH (Araujo et al. (2000) Biochemistry 39:8519-8525; Bachem, Torrance, Calif.) were used in the NEP and ACE assays respectively.
The assays were performed in 384-well white opaque plates at 37° C. using the fluorogenic peptide substrates at a concentration of 10 μM in Assay Buffer (NEP: 50 mM HEPES, pH 7.5, 100 mM NaCl, 0.01% polyethylene glycol sorbitan monolaurate (Tween-20), 10 μM ZnSO4; ACE: 50 mM HEPES, pH 7.5, 100 mM NaCl, 0.01% Tween-20, 1 μM ZnSO4).
Test compounds were assayed over the range of concentrations from 10 μM to 20 pM. Test compounds were added to the enzymes and incubated for 30 minute at 37° C. prior to initiating the reaction by the addition of substrate. Reactions were terminated after 20 minutes of incubation at 37° C. by the addition of glacial acetic acid to a final concentration of 3.6% (v/v).
Plates were read on a fluorometer with excitation and emission wavelengths set to 320 nm and 405 nm, respectively. Inhibition constants were obtained by nonlinear regression of the data using the equation (GraphPad Software, Inc., San Diego, Calif.): v=v0/[1+(I/K′)] where v is the reaction rate, v0 is the uninhibited reaction rate, I is the inhibitor concentration and K′ is the apparent inhibition constant.
Compounds of the invention were tested in this assay and found to have pKi values at human NEP as follows.

T1 sequence (P08473 52-750 limits assumed): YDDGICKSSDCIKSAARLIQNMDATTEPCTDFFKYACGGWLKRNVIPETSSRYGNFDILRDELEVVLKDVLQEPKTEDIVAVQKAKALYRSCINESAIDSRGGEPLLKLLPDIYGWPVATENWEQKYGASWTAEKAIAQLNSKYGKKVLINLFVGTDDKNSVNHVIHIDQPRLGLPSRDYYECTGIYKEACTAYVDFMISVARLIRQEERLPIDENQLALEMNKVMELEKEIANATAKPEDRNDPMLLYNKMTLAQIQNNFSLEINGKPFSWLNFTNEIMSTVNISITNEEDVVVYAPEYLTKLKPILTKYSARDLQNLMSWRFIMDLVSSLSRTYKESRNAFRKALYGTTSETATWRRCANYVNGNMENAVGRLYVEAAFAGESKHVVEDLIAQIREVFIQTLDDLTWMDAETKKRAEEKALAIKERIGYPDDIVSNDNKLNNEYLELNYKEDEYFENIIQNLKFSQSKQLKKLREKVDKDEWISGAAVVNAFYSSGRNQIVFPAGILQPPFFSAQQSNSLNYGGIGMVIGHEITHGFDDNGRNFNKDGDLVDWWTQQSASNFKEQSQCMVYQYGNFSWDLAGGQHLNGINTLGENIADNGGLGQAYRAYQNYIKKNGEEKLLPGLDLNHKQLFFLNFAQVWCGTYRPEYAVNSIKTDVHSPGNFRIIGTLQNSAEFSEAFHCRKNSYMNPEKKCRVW

SMILES	Ki	pKi
Cc1cnc(C(=O)N[C@H](Cc2ccc(-c3cc(Cl)ccc3F)cc2)C[C@@](C)(CN)C(=O)O)o1 [Example 4-2, (2S,4R)-2-Aminomethyl-5-(5′-chloro-2′-fluorobiphenyl-4-yl)-2-methyl-4-[(5-methyl-oxazole-2-carbonyl)amino]pentanoic acid]	1.26 to 3.16 nM	
CCC(C#N)(C[C@@H](Cc1ccc(-c2cc(Cl)ccc2F)cc1)NC(=O)c1cnn[nH]1)C(=O)O (single isomer, unassigned) [Example 23b]	126 to 316 nM	
CCCC(CO)(C[C@@H](Cc1ccc(-c2cc(Cl)ccc2F)cc1)NC(=O)c1cnn[nH]1)C(=O)O (single isomer, unassigned) [Example 15b]		≧9.0
COC[C@](C)(C[C@@H](Cc1ccc(-c2cc(Cl)ccc2F)cc1)NC(=O)c1cn(CCO)nn1)C(=O)O [Example 8-10, (2S,4R)-5-(5′-Chloro-2′-fluorobiphenyl-4-yl)-4-{[1-(2-hydroxyethyl)-1H-[1,2,3]triazole-4-carbonyl]amino}-2-methoxymethyl-2-methylpentanoic acid]	1.26 to 3.16 nM	
CCOC[C@](C)(C[C@@H](Cc1ccc(-c2cc(Cl)ccc2F)cc1)NC(=O)c1ccc(Cl)cn1)C(=O)O [Example 11-2, (2S,4R)-5-(5′-Chloro-2′-fluorobiphenyl-4-yl)-4-[(5-chloropyridine-2-carbonyl)amino]-2-ethoxymethyl-2-methylpentanoic acid]	≤ 1 nM	
CCOC[C@](C)(C[C@@H](Cc1ccc(-c2cc(Cl)ccc2F)cc1)NC(=O)c1ncccn1)C(=O)O [Example 11-3, (2S,4R)-5-(5′-Chloro-2′-fluorobiphenyl-4-yl)-2-ethoxymethyl-2-methyl-4-[(pyrimidine-2-carbonyl)amino]pentanoic acid]	1.26 to 3.16 nM	
CCC(C#N)(C[C@@H](Cc1ccc(-c2cc(Cl)ccc2F)cc1)NC(=O)c1cnn[nH]1)C(=O)O (single isomer, unassigned) [Example 23a]	≤ 1 nM	
CC(C#N)(C[C@@H](Cc1ccc(-c2cc(Cl)ccc2F)cc1)NC(=O)c1cnn[nH]1)C(=O)O (single isomer, unassigned) [Example 12a]	39.8 to 100 nM	
O=C(N[C@H](Cc1ccc(-c2cc(Cl)ccc2F)cc1)CC(CO)(CCO)C(=O)O)c1cnn[nH]1 (single isomer, unassigned) [Example 16b]	12.6 to 31.6 nM	
C[C@@](CN)(C[C@@H](Cc1ccc(-c2cc(Cl)ccc2F)cc1)NC(=O)c1ccn(C(F)F)n1)C(=O)O [Example 3, (2S,4R)-2-Aminomethyl-5-(5′-chloro-2′-fluorobiphenyl-4-yl)-4-[(1-difluoromethyl-1H-pyrazole-3-carbonyl)amino]-2-methylpentanoic Acid]	1.26 to 3.16 nM	
COC[C@](C)(C[C@@H](Cc1ccc(-c2cc(Cl)ccc2F)cc1)NC(=O)c1ccc(Cl)cn1)C(=O)O [Example 8-3, (2S,4R)-5-(5′-Chloro-2′-fluorobiphenyl-4-yl)-4-[(5-chloropyridine-2-carbonyl)amino]-2-methoxymethyl-2-methylpentanoic acid]	1.26 to 3.16 nM	
CC(N)(C[C@@H](Cc1ccc(-c2cc(Cl)ccc2F)cc1)NC(=O)c1cnn[nH]1)C(=O)O (single isomer, unassigned) [Example 1a]	3.98 to 10 nM	
C[C@](C[C@@H](Cc1ccc(-c2cc(Cl)ccc2F)cc1)NC(=O)c1c[nH]nn1)(C(N)=O)C(=O)O [Example 5, (2S,4R)-2-Carbamoyl-5-(5′-chloro-2′-fluorobiphenyl-4-yl)-2-methyl-4-[(1H-[1,2,3]triazole-4-carbonyl)amino]pentanoic Acid]	≤ 1 nM	
C=CCC(CO)(C[C@@H](Cc1ccc(-c2cc(Cl)ccc2F)cc1)NC(=O)c1cnn[nH]1)C(=O)O (single isomer, unassigned) [Example 19a]	≤ 1 nM	
CCOC[C@](C)(C[C@@H](Cc1ccc(-c2cc(Cl)ccc2F)cc1)NC(=O)c1ncco1)C(=O)O [Example 11-1, (2S,4R)-5-(5′-Chloro-2′-fluorobiphenyl-4-yl)-2-ethoxymethyl-2-methyl-4-[(oxazole-2-carbonyl)amino]pentanoic acid]	1.26 to 3.16 nM	
CCOn1cc(C(=O)N[C@H](Cc2ccc(-c3cc(Cl)ccc3F)cc2)C[C@@](C)(COC)C(=O)O)nn1 [Example 8-8, (2S,4R)-5-(5′-Chloro-2′-fluorobiphenyl-4-yl)-4-[(1-ethoxy-1H-[1,2,3]triazole-4-carbonyl)amino]-2-methoxymethyl-2-methylpentanoic acid]	≤ 1 nM	

SMILES	Ki	pKi
CCC(CO)(C[C@@H](Cc1ccc(-c2cc(Cl)ccc2F)cc1)NC(=O)c1cnn[nH]1)C(=O)O (single isomer, unassigned) [Example 14b]		≧9.0
COC[C@](C)(C[C@@H](Cc1ccc(-c2cc(Cl)ccc2F)cc1)NC(=O)c1noc(=O)[nH]1)C(=O)O [Example 7, (2S,4R)-5-(5′-Chloro-2′-fluorobiphenyl-4-yl)-2-methoxymethyl-2-methyl-4-[(5-oxo-4,5-dihydro-[1,2,4]oxadiazole-3-carbonyl)amino]pentanoic Acid]	≤ 1 nM	
CCOC[C@](C)(C[C@@H](Cc1ccc(-c2cc(Cl)ccc2F)cc1)NC(=O)c1coc(C2CC2)n1)C(=O)O [Example 10, (2S,4R)-5-(5′-Chloro-2′-fluorobiphenyl-4-yl)-4-[(2-cyclopropyoxazole-4-carbonyl)amino]-2-ethoxymethyl-2-methylpentanoic Acid]	1.26 to 3.16 nM	
O=C(N[C@H](Cc1ccc(-c2cc(Cl)ccc2F)cc1)CC(CO)(CCO)C(=O)O)c1cnn[nH]1 (single isomer, unassigned) [Example 16a]	1.26 to 3.16 nM	
CC(=O)NCCC(CO)(C[C@@H](Cc1ccc(-c2cc(Cl)ccc2F)cc1)NC(=O)c1cnn[nH]1)C(=O)O (stereo partly drawn) [Example 18, (R)-2-(2-Acetylaminoethyl)-5-(5′-chloro-2′-fluorobiphenyl-4-yl)-2-hydroxymethyl-4-[(3H-[1,2,3]triazole-4-carbonyl)amino]pentanoic Acid]	≤ 1 nM	
COC[C@](C)(C[C@@H](Cc1ccc(-c2cc(Cl)ccc2F)cc1)NC(=O)c1ncccn1)C(=O)O [Example 8-4, (2S,4R)-5-(5′-Chloro-2′-fluorobiphenyl-4-yl)-2-methoxymethyl-2-methyl-4-[(pyrimidine-2-carbonyl)amino]pentanoic acid]	≤ 1 nM	
O=C(N[C@H](Cc1ccc(-c2cc(Cl)ccc2F)cc1)CC1(C(=O)O)CCNC1)c1cnn[nH]1 (single isomer, unassigned) [Example 21a]	≤ 1 nM	
COC[C@](C)(C[C@@H](Cc1ccc(-c2cc(Cl)ccc2F)cc1)NC(=O)c1nc[nH]n1)C(=O)O [Example 8-7, (2S,4R)-5-(5′-Chloro-2′-fluorobiphenyl-4-yl)-2-methoxymethyl-2-methyl-4-[(1H-[1,2,4]triazole-3-carbonyl)amino]pentanoic acid]	1.26 to 3.16 nM	
COC[C@](C)(C[C@@H](Cc1ccc(-c2cc(Cl)ccc2F)cc1)NC(=O)c1ncc(C)o1)C(=O)O [Example 8-1, (2S,4R)-5-(5′-Chloro-2′-fluorobiphenyl-4-yl)-2-methoxymethyl-2-methyl-4-[(5-methyloxazole-2-carbonyl)amino]pentanoic acid]	≤ 1 nM	
COC[C@](C)(C[C@@H](Cc1ccc(-c2cc(Cl)ccc2F)cc1)NC(=O)c1ncco1)C(=O)O [Example 8-6, (2S,4R)-5-(5′-Chloro-2′-fluorobiphenyl-4-yl)-2-methoxymethyl-2-methyl-4-[(oxazole-2-carbonyl)amino]pentanoic acid]	≤ 1 nM	
CC(C#N)(C[C@@H](Cc1ccc(-c2cc(Cl)ccc2F)cc1)NC(=O)c1cnn[nH]1)C(=O)O (single isomer, unassigned) [Example 12b]	≤ 1 nM	
C[C@@](CN)(C[C@@H](Cc1ccc(-c2cc(Cl)ccc2F)cc1)NC(=O)c1cnn[nH]1)C(=O)O [Example 2, (2S,4R)-2-Aminomethyl-5-(5′-chloro-2′-fluorobiphenyl-4-yl)-2-methyl-4-[(3H-[1,2,3]triazole-4-carbonyl)amino]pentanoic Acid]	≤ 1 nM	
CC(=O)N1CCC(C[C@@H](Cc2ccc(-c3cc(Cl)ccc3F)cc2)NC(=O)c2cnn[nH]2)(C(=O)O)C1 (single isomer, unassigned) [Example 22a]	≤ 1 nM	
COC[C@](C)(C[C@@H](Cc1ccc(-c2cc(Cl)ccc2F)cc1)NC(=O)c1cn(OC)nn1)C(=O)O [Example 8-9, (2S,4R)-5-(5′-Chloro-2′-fluorobiphenyl-4-yl)-2-methoxymethyl-4-[(1-methoxy-1H-[1,2,3]triazole-4-carbonyl)amino]-2-methylpentanoic acid]	1.26 to 3.16 nM	
COC[C@](C)(C[C@@H](Cc1ccc(-c2cc(Cl)ccc2F)cc1)NC(=O)c1ccc(C(F)(F)F)cn1)C(=O)O [Example 8-5, (2S,4R)-5-(5′-Chloro-2′-fluorobiphenyl-4-yl)-2-methoxymethyl-2-methyl-4-[(5-trifluoromethylpyridine-2-carbonyl)amino]pentanoic acid]	≤ 1 nM	
